Patent publication US5175253A, “Binding peptides” (Washington University, priority 1991, dated 1992)
Read-outs that look alike come from different tables or passages of the source. One block for each compound: values may come before it. Ends that are not written are not given here.

Experiments:
SEC receptor [1] = test: Competition for binding to, and cross-linking of, the SEC receptor of HepG2 cells; design: species or system human
substance P receptor = target: T1, substance P receptor (Rattus norvegicus, UniProt P14600); test: Competition for binding of substance P to a stable transfected cell line expressing the substance P receptor
T1 construct: expressed in transfected cells
T1 sequence (P14600 whole entry): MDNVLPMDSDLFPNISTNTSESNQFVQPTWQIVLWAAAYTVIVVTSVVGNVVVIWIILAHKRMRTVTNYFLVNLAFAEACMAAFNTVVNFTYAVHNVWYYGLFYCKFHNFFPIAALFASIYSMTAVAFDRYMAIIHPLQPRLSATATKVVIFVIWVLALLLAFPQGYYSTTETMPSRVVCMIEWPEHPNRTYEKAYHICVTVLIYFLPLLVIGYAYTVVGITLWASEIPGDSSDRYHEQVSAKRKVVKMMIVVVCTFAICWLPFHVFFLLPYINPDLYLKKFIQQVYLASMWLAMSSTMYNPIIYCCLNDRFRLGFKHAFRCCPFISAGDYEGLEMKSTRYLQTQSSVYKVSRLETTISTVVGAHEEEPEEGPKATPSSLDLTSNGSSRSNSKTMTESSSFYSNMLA

[2] = Solubility of peptides in water and DMSO
Protocol: Some of the peptides used as candidate competitors, especially the pentapeptides, were dissolved in dimethylsulfoxide (DMSO) because they were not soluble in water. For all of these tests the same final concentration of DMSO was added to each cell monolayer.

SEC receptor [3] = test: Competition for binding of 125I peptide 105Y to HepG2 cells; design: species or system human; settings: 125I peptide 105Y 50 nM, 2 hrs at 4° C., unlabelled competitor
Protocol: For each test HepG2 cells were incubated for 2 hrs at 4° C. in binding buffer, ^125 I peptide 105Y at saturating concentrations (50 nM) and competing unlabelled synthetic peptides in the concentrations specified on the horizontal axis. […] Binding in the absence of competitor was arbitrarily designated 100% binding on the vertical axis. Each data point and set of error bars represent mean and 1 standard deviation for four separate determinations. Partial amino acid sequences of α1 AT and synthetic peptides are shown at the top of each of panels a, b and c.
Each bar represents mean and 1 standard deviation for 3 separate determinations.

SEC receptor [4] = test: Competition for binding of α1 AT-125I trypsin complexes to HepG2 cells; design: species or system human; settings: complexes 50 nM, competitor in 50-fold molar excess, 2 hrs at 4° C.
Protocol: FIG. 2 presents two bar graphs which show competition for binding and internalization of α1 AT^125 I trypsin complexes by HepG2 cells. For panel a, HepG2 cells were incubated for 2 hours at 4° C. in binding buffer, α1 AT-^125 I trypsin complexes in subsaturating concentrations (50 nM) and competing unlabelled proteins or synthetic peptides in 50-fold molar excess. The cells were then rinsed, homogenized and cell-associated radioactivity determined. Binding in the absence of competitor was arbitrarily designated 0% inhibition of binding on the vertical axis. Results represent mean and 1 standard deviation for 3 separate determinations of each competitor. For panel b, HepG2 cells were incubated for 1 hour at 37° C. in binding buffer, α1 AT^125 I trypsin complexes in subsaturating concentrations (50 nM) and competing unlabelled proteins or synthetic peptides in 50-fold molar excess. […] Internalization in the absence of competitor was arbitrarily designated 0% inhibition of internalization on the vertical axis. Results represent mean and 1 standard deviation for 3 separate determinations of each putative competitor. Partial amino acid sequences for α1 AT and peptides are shown at the top of each panel. […]

SEC receptor [5] = test: Competition for internalization of α1 AT-125I trypsin complexes by HepG2 cells; type: cell-based, human; settings: 50-fold molar excess, 60 minutes at 37° C., Proteinase K-resistant radioactivity
Protocol: FIG. 2 presents two bar graphs which show competition for binding and internalization of α1 AT^125 I trypsin complexes by HepG2 cells. For panel a, HepG2 cells were incubated for 2 hours at 4° C. in binding buffer, α1 AT-^125 I trypsin complexes in subsaturating concentrations (50 nM) and competing unlabelled proteins or synthetic peptides in 50-fold molar excess. The cells were then rinsed, homogenized and cell-associated radioactivity determined. Binding in the absence of competitor was arbitrarily designated 0% inhibition of binding on the vertical axis. Results represent mean and 1 standard deviation for 3 separate determinations of each competitor. For panel b, HepG2 cells were incubated for 1 hour at 37° C. in binding buffer, α1 AT^125 I trypsin complexes in subsaturating concentrations (50 nM) and competing unlabelled proteins or synthetic peptides in 50-fold molar excess. […] Internalization in the absence of competitor was arbitrarily designated 0% inhibition of internalization on the vertical axis. Results represent mean and 1 standard deviation for 3 separate determinations of each putative competitor. Partial amino acid sequences for α1 AT and peptides are shown at the top of each panel.
The cells were then rinsed extensively and incubated with Proteinase K for an additional 60 minutes at 4° C. to remove any surface bound radiolabelled ligand. Internalization was defined as radioactivity associated with the resulting cell pellet. […] Higher degrees of inhibition were achieved by higher concentrations of competitors in other tests.

SEC receptor [6] = test: Direct binding of 125I peptide 105C to HepG2 cells; design: species or system human
Protocol: (§1) Left panel a: cells were incubated 2 hours at 4° C. with several different concentrations of ^125 I peptide 105C in the absence (open circles, total ligand binding) or the presence of unlabelled peptide 105C in 200-fold molar excess (filled circles, nonspecific binding). The difference was designated specific binding (open triangles). The cells were then rinsed and cell-associated radioactivity was determined by gamma counting of cell homogenates. Right panel b: cells were incubated for 2 hours at 4° C. with ^125 I peptide 105C in subsaturating concentrations (50 nM) in the absence or presence of unlabelled competing proteins or peptides as indicated on the horizontal axis. The molar excess in fold of each competitor is indicated in parentheses. Binding in the absence of competitor was arbitrarily designated 0% inhibition of binding on the vertical axis.
(§2) The direct binding of peptide 105C to HepG2 cells was also examined. This peptide was radioiodinated by the chloramine T method and purified by reverse phase C:18 chromatography. Separate monolayers of cells were incubated with ^125 I-105C in several different concentrations either in the absence or presence of unlabelled 105C in 200-fold molar excess (FIG. 3, left panel a). […]

SEC receptor [7] = test: Competition for binding of 125I peptide 105C to HepG2 cells; design: species or system human; settings: 125I peptide 105C 50 nM, 2 hours at 4° C.
Protocol: as §1, §2

SEC receptor [8] = settings: cited from earlier work
SEC receptor [9] = settings: unlabelled competitor; cited from earlier work
synthesis of α1 AT = settings: cited from earlier work

Compound: CSCC[C@H](NC(=O)[C@H](CC(C)C)NC(=O)[C@H](Cc1cnc[nH]1)NC(=O)CNC(=O)[C@@H](NC(=O)[C@H](C)NC(=O)[C@H](Cc1c[nH]c2ccccc12)NC(=O)[C@H](CCC(N)=O)NC(=O)[C@H](CC(N)=O)NC(=O)CNC(=O)[C@H](CC(C)C)NC(=O)[C@H](CCCN=C(N)N)NC(=O)[C@H](CCC(N)=O)NC(=O)[C@@H]1CCC(=O)N1)C(C)C)C(N)=O [bombesin]
competition for binding to, and cross-linking of, the SEC receptor (SEC receptor [1]): compete for binding to, and cross-linking of, the SEC receptor | competition for binding of substance P (substance P receptor): do not compete for binding of substance P

solubility [2]: soluble in both water and DMSO
Compound: EVKFNKP [peptide 105B, Glu-Val-Lys-Phe-Asn-Lys-Pro]

Compound: Phe-Val-Tyr-Leu-Ile (FVYLI) [peptide 105C]
competition for binding of 125I peptide 105Y to HepG2 cells (SEC receptor [3]): compete as effectively as peptide 105Y | competition for binding of 125I peptide 105Y to HepG2 cells (SEC receptor [3]; listed as FVYLI): no difference in inhibition of binding | inhibition of binding of α1 AT-125I trypsin complexes to HepG2 cells (SEC receptor [4]): inhibits binding | inhibition of internalization of α1 AT-125I trypsin complexes (SEC receptor [5]): inhibits internalization as effectively as peptide 105Y and unlabelled α1 AT-trypsin complexes | direct binding to HepG2 cells (SEC receptor [6]; 125I-105C with or without unlabelled 105C in 200-fold molar excess): specific and saturable binding | Kd (SEC receptor [6]; 125I-105C, HepG2 cells, 2 hours at 4° C., read-out: point of half-maximal saturation): ~40 nM

Compound: SIPPEVKFNKPFVYLI [peptide 105Y, carboxy-terminal fragment, amino acids 359-374, of α1 AT]
competition for binding of 125I peptide 105Y to HepG2 cells (SEC receptor [3]): compete | inhibition of binding of α1 AT-125I trypsin complexes to HepG2 cells (SEC receptor [4]): inhibits binding | inhibition of internalization of α1 AT-125I trypsin complexes (SEC receptor [5]): inhibits internalization | inhibition of binding of 125I 105C (SEC receptor [7]): inhibited | competition for binding of substance P (substance P receptor): do not compete for binding of substance P | Kd (SEC receptor [8]; 125I peptide 105Y, HepG2 cells and human blood monocytes, read-out: K2): 40 nM | direct binding of 125I peptide 105Y (SEC receptor [8]; HepG2 cells and human blood monocytes): bound specifically and saturably | blocking of binding of 125I α1 AT-elastase complexes (SEC receptor [9]): blocked binding | effect on synthesis of α1 AT (synthesis of α1 AT): mediated an increase in synthesis of α1 AT

Compound: amyloid-β-protein
competition for binding to, and cross-linking of, the SEC receptor (SEC receptor [1]): compete for binding to, and cross-linking of, the SEC receptor | competition for binding of substance P (substance P receptor): do not compete for binding of substance P

Compound: native α1 AT: purified human plasma α1-antitrypsin, 55 kDa serum glycoprotein
inhibition of internalization of α1 AT-125I trypsin complexes (SEC receptor [5]): no significant inhibition of internalization

Compound: α1 ACT-cathepsin G complexes: serpin-enzyme complex
blocking of binding of 125I peptide 105Y (SEC receptor [8]): blocked

Compound: α1 AT-elastase complexes: complex of α1 AT with neutrophil elastase
blocking of binding of 125I peptide 105Y (SEC receptor [8]): blocked
